This note sets out measurements from ChEMBL document CHEMBL1201862, “PubChem BioAssay data set” (2004).

Some test systems named below: MCF7; MDA-MB-435; A498; SK-MEL-5; COLO 205; SN12C; Malme-3M; MDA-N; PC-3; OVCAR-5; NCI-H23; HL-60; OVCAR-3; HOP-62; UACC-62; NCI-H522; HCC 2998; SK-MEL-28; HOP-92; SF-268.
Assay in all cases: DTP human tumour cell line panel, 48 h

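In this assay, cells in 96-well plates receive the compound at five concentrations for 48 hours. Endpoints are linearly interpolated between the surrounding concentrations. GI50 is the concentration that inhibits growth by half.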 Activity calls are given as the source filed them. Rule as the data show it: active = GI50 up to about 1.1 µM and inactive = higher. Where only a bound is given, the exact number is not on record here.

For the compound `Oc1c(CN2CCCC2)ccc2cccnc12`, the GI50 with MCF7 was 29.6 µM (inactive); with MDA-MB-435, 38.9 µM (inactive); with A498, 29.9 µM (inactive); with SK-MEL-5, 12.7 µM (inactive); with COLO 205, 25.9 µM (inactive); in the assay on SN12C it was 19.3 µM (inactive). For the same compound, the GI50 is 25.1 µM (inactive) in the assay with Malme-3M; 39.4 µM (inactive) with MDA-N; > 39.5 µM (inactive) with PC-3; 31.6 µM (inactive) in the assay with OVCAR-5; 27 µM (inactive) with NCI-H23; 4.94 µM (inactive) in the assay with HL-60. Further, the GI50 in the assay on OVCAR-3 is 23.9 µM (inactive); in the assay on HOP-62 it was 13.3 µM (inactive); in the assay with UACC-62 it was 26.2 µM (inactive); with NCI-H522, 27.6 µM (inactive); in the assay on HCC 2998 it was > 47.4 µM (inactive); with SK-MEL-28, 22.5 µM (inactive). Also, the GI50 in the assay with HOP-92 is 26.4 µM (inactive); in the assay on SF-268, 24 µM (inactive).

For `Cn1cc(-c2n[nH]c(-c3ccc(Cl)cc3)nc2=O)c2ccccc21`, the GI50 is 1.8 µM (inactive) with MCF7; 0.184 µM (active) in the assay with MDA-MB-435; 2.04 µM (inactive) with A498; 1.35 µM (inactive) with SK-MEL-5; 2.07 µM (inactive) with COLO 205; 6.34 µM (inactive) in the assay with SN12C. The GI50 with Malme-3M is 3.44 µM (inactive); with MDA-N, 0.399 µM (active); in the assay with PC-3, 2.3 µM (inactive); in the assay with OVCAR-5, 4.34 µM (inactive); with NCI-H23 it was 4.28 µM (inactive); in the assay on HL-60, 0.671 µM (active). Also, the 50% growth inhibitory concentration (GI50) in the assay on OVCAR-3 was 0.979 µM (active); with HOP-62, 5.36 µM (inactive); in the assay on UACC-62, 1.73 µM (inactive); in the assay on NCI-H522, 0.959 µM (active); with HCC 2998, 1.57 µM (inactive); in the assay with SK-MEL-28 it was > 71.1 µM (inactive). Further, the GI50 with HOP-92 is 12.3 µM (inactive); in the assay on SF-268 it was 7.59 µM (inactive).

For `N#C[BH2-][n+]1cn(C2CC(O)C(COP(=O)(O)OC3CC(n4cnc5c(=O)[nH]c(N)nc54)OC3CO)O2)c2nc(N)[nH]c(=O)c21` (stereo not given), the GI50 in the assay with MCF7 was 39.5 µM (inactive); in the assay on MDA-MB-435, > 100 µM (inactive); in the assay on A498 it was > 100 µM (inactive); with SK-MEL-5, > 100 µM (inactive); in the assay with COLO 205, > 100 µM (inactive); in the assay on SN12C, > 100 µM (inactive). In addition, the GI50 was > 100 µM (inactive) in the assay on Malme-3M; > 100 µM (inactive) with MDA-N; 66.4 µM (inactive) in the assay on PC-3; > 100 µM (inactive) in the assay on OVCAR-5; > 100 µM (inactive) in the assay on NCI-H23; > 100 µM (inactive) with HL-60. In addition, the GI50 in the assay with OVCAR-3 was > 100 µM (inactive); with HOP-62, 84.7 µM (inactive); in the assay on UACC-62, > 100 µM (inactive); in the assay with NCI-H522, > 100 µM (inactive); with HCC 2998, > 100 µM (inactive); in the assay on SK-MEL-28 it was > 100 µM (inactive). Moreover, the GI50 with HOP-92 and with SF-268 was > 100 µM (inactive) throughout.

For `CC(C)(C)c1cc(OCc2nnc3sc(-c4ccc(Cl)cc4)nn23)c(Cl)cc1OCc1nnc2sc(-c3ccc(Cl)cc3)nn12`, the GI50 is 3.17 µM (inactive) in the assay on MCF7; 0.478 µM (active) in the assay with MDA-MB-435; 8.73 µM (inactive) with A498; 0.726 µM (active) in the assay on SK-MEL-5; 7.46 µM (inactive) in the assay with COLO 205; 10.2 µM (inactive) in the assay with SN12C. Moreover, the GI50 was 2.93 µM (inactive) in the assay on Malme-3M; 0.644 µM (active) in the assay on MDA-N; 4.62 µM (inactive) in the assay with PC-3; 29.7 µM (inactive) in the assay on OVCAR-5; 4.94 µM (inactive) in the assay on NCI-H23; 2.46 µM (inactive) with HL-60. For the same compound, the GI50 in the assay on OVCAR-3 is 2.47 µM (inactive); with HOP-62, 5.87 µM (inactive); in the assay with UACC-62, 4.45 µM (inactive); in the assay on NCI-H522 it was 0.564 µM (active); in the assay with HCC 2998, 2.34 µM (inactive); in the assay with SK-MEL-28, 3.89 µM (inactive). Besides, the GI50 was 0.895 µM (active) in the assay on HOP-92 and 6.97 µM (inactive) with SF-268.
